This passage reports IC50 results from patent US9975882B2, “Heteroaromatic compounds as BTK inhibitors” (Boehringer Ingelheim International GmbH, priority 2015, dated 2018).

Assay [1] has as its target human full length His-tagged BTK (Homo sapiens (Human), UniProt Q06187). In words: BTK Lanthscreen Eu Kinase Binding assay. Particulars: 2 nM BTK. As to the method:
BTK Lanthscreen® Eu Kinase Binding Assay:
A Lanthscreen® Eu Kinase Binding assay (Life Technologies) is performed to quantitate the ability of test compounds to bind to BTK. The assay is based on the binding and displacement of Alexa Fluor647-labeled Kinase Tracer #236 to the ATP-binding site of human full length His-tagged BTK (Life Technologies cat #PV3587) with TR-FRET detection using a europium-labeled anti-His antibody. The assay is assembled in 384-well low volume NBS black plates (Corning) where 2 nM BTK and test compound in DMSO at varying concentrations are pre-incubated for 30 min at 28° C. in assay buffer consisting of 50 mM HEPES, pH 7.4, 10 mM MgCl2, 1 mM EGTA. 100 μM Na3VO4 and 0.01% Brij 35. Then, 2 nM of Eu-anti His antibody and 30 nM Kinase Tracer are added and incubated for 60 min at 28° C. Following incubation, TR-FRET signal is read on an Envision plate reader (Excitation: 340 nm; Emissions: 615 and 665 nm). The 665:615 nm emission ratio is calculated and converted to POC compared to control and blank wells.

Assay [2] deals with BTK (IL-6 production in primary CD19+ B cells). Description: Inhibition of IL-6 production in B cells co-stimulated with ODN 2006 and anti-hIgD. Type of assay: cell-based. Particulars: B-cell, anti-human IgD + ODN 2006. Here is the method: Inhibition of IL-6 Production in B Cells Co-Stimulated with ODN 2006 and anti-hIgD
Primary CD19+ B cells (AllCells #PB010F) are thawed and plated in RPMI containing 10% HI FBS in a 384-well tissue cultured plate at 20,000 cells/well. The cells are treated with test compound (0.5% DMSO final concentration) and incubated for 1 hour at 37° C., 5% CO2. Cells are then stimulated with 5 ug/mL Goat F(ab′)2 anti-human IgD (SouthernBiotech #2032) and 2 uM ODN 2006 (InvivoGen #tlrl-2006) and incubated for 18-24 hours at 37° C., 5% CO2. IL-6 in the supernatant is measured using Meso Scale Discovery kit #K211AKB-6.
(§1) Representative compounds of the present invention are tested and show BTK inhibition (Table I). […] Additionally, compounds of the present invention, as represented by examples in Table II, are selective for BTK inhibition over other related kinases. […] In this table the BTK activity is measured by IL-6 production in primary CD19^+ B cells, and the EGFR activity is measured by EGFR phosphorylation in A431 cells.

The target of assay [3] is EGFR (EGFR phosphorylation in A431 cells) (Homo sapiens (Human), UniProt P00533). In words: Inhibition of EGFR autophosphorylation in A431 human epithelial cells stimulated with EGF. Type of assay: cell-based. Conditions: EGF 60 ng/mL, read-out: A431 p-EGFR IC50. Here is the method: Inhibition of EGFR Autophosphorylation in A431 Human Epithelial Cells Stimulated with Epithelial Growth Factor
A431 cells (ATCC #CRL-1555 FZ) are thawed and plated in DMEM containing 10% FBS in a 384-well tissue culture treated plate at 15,000 cells/well. After incubating for 24 hours at 37° C., 5% CO2, the cells are treated with test compound (1% DMSO final concentration) and incubated for 16 hours at 37° C., 5% CO2. EGF (Millipore, 01-107) is added at a final concentration of 60 ng/mL and incubated for 10 minutes. The medium is removed, the cells are lysed, and phospho EGFR is measured (Meso Scale Diagnostics, N31CB-1).
as §1

Assay [4] addresses human recombinant full length TEC (His-tagged) (Homo sapiens (Human), UniProt P42680). Description: TEC Lanthscreen Eu Kinase Binding assay. Conditions: 1 nM TEC.
The target of assay [5] is human recombinant Txk (full length, GST-tagged) (Homo sapiens (Human), UniProt P42681). In words: TXK Z'-LYTE assay.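 Also: FRET read-out of kinase phosphorylation of a synthetic peptide labelled with Coumarin and Fluorescein, scored by protease sensitivity of unphosphorylated peptide, incubated at 22 °C.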 Particulars: read-out: TXK IC50, 100 μM ATP.
Protocol: Z′-LYTE™ Assay (Life Technologies):
(§2) The Z′-Lyte assay employs a FRET-based, coupled-enzyme format and is based on the differential sensitivity of phosphorylated and non-phosphorylated peptides to proteolytic Cleavage. The activity of human recombinant BTK (full length, His-tagged), BMX (full length, His-tagged) or Txk (full length, GST-tagged) is estimated by measuring the phosphorylation of a synthetic FRET peptide substrate labeled with Coumarin and Fluorescein. […] Incubations are carried out at 22° C. in black polypropylene 384-well plates (Corning).
(§3) Representative compounds of the present invention are assessed for inhibition of BTK, BMX, and TXK measuring phosphorylation of a substrate (Z′-LYTE™ assay, Life Technologies) and TEC measuring displacement of a “tracer” (Lanthscreen® Eu Kinase Binding assay, Life Technologies).
In assay [6] the target is human recombinant BTK (full length, His-tagged) (Homo sapiens (Human), UniProt Q06187). In words: BTK Z'-LYTE assay.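 Also: FRET readout of kinase phosphorylating a coumarin and fluorescein labelled synthetic peptide, detected via protease sensitivity of unphosphorylated versus phosphorylated substrate, incubated at 22 °C in 384-well plates.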 Type of assay: biochemical. Particulars: 25 μM ATP.
Sequence of human recombinant BTK (full length, His-tagged) (Q06187 whole entry): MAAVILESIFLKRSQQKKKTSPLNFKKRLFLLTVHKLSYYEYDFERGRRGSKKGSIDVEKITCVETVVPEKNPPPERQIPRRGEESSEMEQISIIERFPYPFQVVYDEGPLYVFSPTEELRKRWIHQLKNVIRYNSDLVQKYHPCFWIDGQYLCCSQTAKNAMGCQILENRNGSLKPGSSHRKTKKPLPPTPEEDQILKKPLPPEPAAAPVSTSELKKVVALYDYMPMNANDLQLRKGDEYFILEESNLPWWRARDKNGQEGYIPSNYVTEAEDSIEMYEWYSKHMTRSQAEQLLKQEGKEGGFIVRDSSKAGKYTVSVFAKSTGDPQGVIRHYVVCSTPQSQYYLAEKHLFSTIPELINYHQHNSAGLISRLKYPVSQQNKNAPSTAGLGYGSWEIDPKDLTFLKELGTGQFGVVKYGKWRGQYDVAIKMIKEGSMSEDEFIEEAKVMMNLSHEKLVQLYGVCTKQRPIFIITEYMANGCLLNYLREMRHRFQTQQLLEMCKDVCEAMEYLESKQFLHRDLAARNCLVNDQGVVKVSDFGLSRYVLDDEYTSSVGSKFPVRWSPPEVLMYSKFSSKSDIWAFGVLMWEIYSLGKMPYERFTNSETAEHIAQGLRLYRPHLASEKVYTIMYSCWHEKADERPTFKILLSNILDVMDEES
Protocol: Z′-LYTE™ Assay (Life Technologies):
as §2, §3

Sequence of human recombinant Txk (full length, GST-tagged) (P42681 whole entry): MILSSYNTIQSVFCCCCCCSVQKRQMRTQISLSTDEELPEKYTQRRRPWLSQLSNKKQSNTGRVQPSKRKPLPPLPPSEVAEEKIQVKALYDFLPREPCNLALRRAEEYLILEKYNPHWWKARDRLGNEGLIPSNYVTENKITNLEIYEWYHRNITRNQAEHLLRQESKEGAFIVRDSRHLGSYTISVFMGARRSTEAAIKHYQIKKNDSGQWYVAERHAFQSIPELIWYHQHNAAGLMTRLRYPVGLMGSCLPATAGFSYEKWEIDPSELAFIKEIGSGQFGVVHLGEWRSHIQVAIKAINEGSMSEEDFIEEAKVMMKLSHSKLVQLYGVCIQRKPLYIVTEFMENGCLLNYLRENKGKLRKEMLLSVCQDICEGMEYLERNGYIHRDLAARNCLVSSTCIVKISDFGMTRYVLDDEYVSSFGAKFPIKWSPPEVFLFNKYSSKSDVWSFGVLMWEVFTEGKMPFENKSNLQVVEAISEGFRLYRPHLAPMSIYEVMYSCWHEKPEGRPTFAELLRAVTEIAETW
Sequence of human full length His-tagged BTK (Q06187 whole entry): as the sequence (Q06187 whole entry) above
Sequence of EGFR (EGFR phosphorylation in A431 cells) (P00533 25-1210): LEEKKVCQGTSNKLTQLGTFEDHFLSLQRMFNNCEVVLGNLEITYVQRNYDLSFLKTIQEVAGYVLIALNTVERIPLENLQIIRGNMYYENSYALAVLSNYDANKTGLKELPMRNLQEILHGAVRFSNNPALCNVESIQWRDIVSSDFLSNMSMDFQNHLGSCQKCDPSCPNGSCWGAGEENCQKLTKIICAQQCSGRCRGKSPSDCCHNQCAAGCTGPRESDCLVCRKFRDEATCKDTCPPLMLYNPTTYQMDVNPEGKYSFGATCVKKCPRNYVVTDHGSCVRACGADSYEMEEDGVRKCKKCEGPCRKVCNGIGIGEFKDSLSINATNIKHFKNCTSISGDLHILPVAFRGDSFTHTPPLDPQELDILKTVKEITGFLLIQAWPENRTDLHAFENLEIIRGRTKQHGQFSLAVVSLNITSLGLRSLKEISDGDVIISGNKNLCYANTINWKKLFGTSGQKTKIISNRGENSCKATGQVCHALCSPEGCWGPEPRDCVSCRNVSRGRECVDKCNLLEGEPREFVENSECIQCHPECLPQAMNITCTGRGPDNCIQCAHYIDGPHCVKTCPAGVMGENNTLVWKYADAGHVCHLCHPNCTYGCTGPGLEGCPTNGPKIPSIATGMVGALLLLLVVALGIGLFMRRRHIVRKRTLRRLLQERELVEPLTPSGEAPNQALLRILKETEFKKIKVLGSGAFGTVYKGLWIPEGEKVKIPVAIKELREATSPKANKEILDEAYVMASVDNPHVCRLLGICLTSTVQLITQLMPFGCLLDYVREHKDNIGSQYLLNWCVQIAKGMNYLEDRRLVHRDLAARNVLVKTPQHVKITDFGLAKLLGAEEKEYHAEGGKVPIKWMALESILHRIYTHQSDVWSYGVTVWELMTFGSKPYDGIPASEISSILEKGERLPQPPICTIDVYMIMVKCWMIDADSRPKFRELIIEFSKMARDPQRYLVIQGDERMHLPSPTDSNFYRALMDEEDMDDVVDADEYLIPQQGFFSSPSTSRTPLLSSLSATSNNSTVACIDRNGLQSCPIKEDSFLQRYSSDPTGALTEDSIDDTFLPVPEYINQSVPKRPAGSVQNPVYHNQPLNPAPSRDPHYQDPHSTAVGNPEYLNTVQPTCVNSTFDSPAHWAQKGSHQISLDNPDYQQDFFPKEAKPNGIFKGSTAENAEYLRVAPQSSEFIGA
Sequence of human recombinant full length TEC (His-tagged) (P42680 whole entry): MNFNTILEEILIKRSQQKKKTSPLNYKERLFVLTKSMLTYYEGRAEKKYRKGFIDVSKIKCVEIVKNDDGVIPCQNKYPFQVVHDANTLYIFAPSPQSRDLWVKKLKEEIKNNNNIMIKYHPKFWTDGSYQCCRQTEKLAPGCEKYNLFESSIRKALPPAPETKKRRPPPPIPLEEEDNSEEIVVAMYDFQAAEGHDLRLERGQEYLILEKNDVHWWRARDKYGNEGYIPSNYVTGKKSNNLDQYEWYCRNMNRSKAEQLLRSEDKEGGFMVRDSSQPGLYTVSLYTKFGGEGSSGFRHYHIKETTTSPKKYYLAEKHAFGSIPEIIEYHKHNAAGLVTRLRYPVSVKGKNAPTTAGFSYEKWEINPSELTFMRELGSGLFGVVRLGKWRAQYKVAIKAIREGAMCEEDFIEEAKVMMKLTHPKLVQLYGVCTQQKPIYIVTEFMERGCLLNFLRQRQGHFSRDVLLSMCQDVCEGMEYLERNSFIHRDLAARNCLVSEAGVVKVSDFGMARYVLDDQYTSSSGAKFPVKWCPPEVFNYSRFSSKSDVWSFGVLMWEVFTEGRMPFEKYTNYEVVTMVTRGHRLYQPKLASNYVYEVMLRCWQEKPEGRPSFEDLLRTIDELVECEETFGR

One may read the IC50 as the midpoint of a concentration-inhibition curve. In turn, `C=CC(=O)N1CC[C@]2(C1)C[C@H](n1nc(-c3cnn(Cc4ccccc4)c3)c(C(N)=O)c1N)C2` [Example 1] displayed an IC50 in assay [1] of 36 nM.
Turning to `CC#CC(=O)N1CC[C@]2(C1)C[C@H](n1nc(-c3cnn(Cc4cccc(Cl)c4)c3)c(C(N)=O)c1N)C2` [Example 2], the IC50 in assay [2] was 0.3 nM; in assay [3], over 10000 nM.
The matching figures for `CC#CC(=O)N1CC[C@]2(C1)C[C@H](n1nc(-c3cnn(Cc4cccc(C(F)(F)F)c4Cl)c3)c(C(N)=O)c1N)C2` [Example 3]: 1.2 nM and over 10000 nM.
Molecule `CC#CC(=O)N1CC[C@]2(C1)C[C@H](n1nc(-c3cnn(Cc4cc(C(F)(F)F)ccc4C)c3)c(C(N)=O)c1N)C2` [Example 4] registered an IC50 in assay [1] of 1.8 nM.
The same measure, in the same setting: for `CC#CC(=O)N1CC[C@]2(C1)C[C@H](n1nc(-c3cnn(Cc4ccc(C)c(C(F)(F)F)c4)c3)c(C(N)=O)c1N)C2` [Example 5] the value was 0.4 nM.
Turning to `CC#CC(=O)N1CC[C@]2(C1)C[C@H](n1nc(-c3cnn(Cc4cc(C(F)(F)F)ccc4OC)c3)c(C(N)=O)c1N)C2` [Example 7], the IC50 in assay [2] is 72 nM; in assay [3], over 10000 nM.
The matching figures for `CC#CC(=O)N1CC[C@]2(C1)C[C@H](n1nc(-c3cnn(Cc4cc(C(F)(F)F)ccc4Cl)c3)c(C(N)=O)c1N)C2` [Example 8]: 2.5 nM and over 10000 nM.
On to `CC#CC(=O)N1CC[C@]2(C1)C[C@H](n1nc(-c3cnn(Cc4ccccc4OC(F)(F)F)c3)c(C(N)=O)c1N)C2` [Example 9], for which, in assay [1], the IC50 amounted to 0.6 nM.
Take `CC#CC(=O)N1CC[C@]2(C1)C[C@H](n1nc(-c3cnn(Cc4ccccc4C#N)c3)c(C(N)=O)c1N)C2` [Example 11]: the IC50 in assay [4] worked out at 73 nM; in assay [1], 0.7 nM; in assay [5] it was 150 nM; in assay [6], 1.8 nM.
The molecule `CC#CC(=O)N1CC[C@]2(C1)C[C@H](n1nc(-c3cnn(Cc4ccnc(C(F)(F)F)c4)c3)c(C(N)=O)c1N)C2` [Example 13] had an IC50 in assay [1] of 9.1 nM.
Regarding `CC#CC(=O)N1CC[C@]2(C1)C[C@H](n1nc(-c3cnn(Cc4cccc(C(F)(F)F)n4)c3)c(C(N)=O)c1N)C2` [Example 14], the IC50 is 1.1 nM in assay [2]; 92 nM in assay [4]; 0.5 nM in assay [1]; 1.7 nM in assay [6]; over 10000 nM in assay [3].
On to `CC#CC(=O)N1CC[C@]2(C1)C[C@H](n1nc(-c3cnn(C(C)c4cccc(C(F)(F)F)c4)c3)c(C(N)=O)c1N)C2` (some centres unmarked) [Example 15], for which, in assay [1], the IC50 amounted to 1.1 nM.
On to `CC#CC(=O)N1CC[C@]2(C1)C[C@H](n1nc(-c3cnn([C@H](C)c4cccc(C(F)(F)F)c4)c3)c(C(N)=O)c1N)C2` [Example 18], for which the IC50 is 8 nM in assay [2] and over 10000 nM in assay [3].
`C=CC(=O)N1CC[C@]2(C1)C[C@H](n1nc(-c3cnn(Cc4cccc(C(F)(F)F)c4)c3)c(C(N)=O)c1NC)C2` [Example 20] displayed an IC50 in assay [1] of 22 nM.
Same read-out and setting: for `CC#CC(=O)N1CC[C@]2(C1)C[C@H](n1nc(-c3cnn(Cc4cccc(C5CC5)c4)c3)c(C(N)=O)c1NC)C2` [Example 24] the value was 0.8 nM.
For `CC#CC(=O)N1CC[C@]2(C1)C[C@H](n1nc(-c3cnn(Cc4cccc(Cl)c4)c3)c(C(N)=O)c1NC)C2` [Example 27], the IC50 in assay [2] was 3.4 nM; in assay [4], 66 nM; in assay [1], 1.7 nM; in assay [6] it was 6.6 nM; in assay [3] it was over 10000 nM.
Consider `CC#CC(=O)N1CC[C@]2(C1)C[C@H](n1nc(-c3cnn(Cc4cccc(F)c4)c3)c(C(N)=O)c1N)C2` [Example 28], for which the IC50 turned out to be 39 nM in assay [4], 0.3 nM in assay [1], 95 nM in assay [5] and 1.2 nM in assay [6].
On to `CC#CC(=O)N1CC[C@]2(C1)C[C@H](n1nc(-c3cnn(Cc4ccc(F)cc4)c3)c(C(N)=O)c1N)C2` [Example 29], for which the figures for the IC50 in assay [1], in assay [5] and in assay [6] were 0.8 nM, 92 nM and 3.6 nM, respectively.
For `CC#CC(=O)N1CC[C@]2(C1)C[C@H](n1nc(-c3cnn(Cc4cc(F)cc(C(F)(F)F)c4)c3)c(C(N)=O)c1N)C2` [Example 31], the IC50 in assay [1] turned out to be 0.8 nM.
For `CC#CC(=O)N1CC[C@]2(C1)C[C@H](n1nc(-c3cnn(Cc4cc(C(F)(F)F)ccc4F)c3)c(C(N)=O)c1N)C2` [Example 32], the IC50 in assay [2] was 1.3 nM; in assay [1], 0.5 nM; in assay [6] it was 1.9 nM; in assay [3], over 10000 nM.
`CC#CC(=O)N1CC[C@]2(C1)C[C@H](n1nc(-c3cn(Cc4cccc(Cl)c4)nc3C)c(C(N)=O)c1N)C2` [Example 34] displayed an IC50 in assay [1] of 0.7 nM.
The same measure, in the same setting: for `CC#CC(=O)N1CC[C@]2(C1)C[C@H](n1nc(-c3cn(Cc4cccc(C(F)F)c4)nc3C)c(C(N)=O)c1N)C2` [Example 35] the value was 0.9 nM.
Same read-out and setting: for `CC#CC(=O)N1CC[C@]2(C1)C[C@H](n1nc(-c3cn(Cc4cccc(C5CC5)c4)nc3C)c(C(N)=O)c1N)C2` [Example 37] the value was 0.8 nM; for `CC#CC(=O)N1CC[C@]2(C1)C[C@H](n1nc(-c3cnn(Cc4cc(C)cc(C(F)(F)F)c4)c3)c(C(N)=O)c1N)C2` [Example 38], 3 nM.
For the molecule `CC#CC(=O)N1CC[C@]2(C1)C[C@H](n1nc(-c3cnn(Cc4cc(Cl)cc(C(F)(F)F)c4)c3)c(C(N)=O)c1N)C2` [Example 39], the IC50 in assay [1] turned out to be 0.9 nM.
The same measure, in the same setting: to `CC#CC(=O)N1CC2(CC(n3nc(-c4cnn(Cc5cc(C)cc(C)c5)c4)c(C(N)=O)c3N)C2)C1` [Example 40] belongs 4.2 nM.
The same measure, in the same setting: for `NC(=O)c1c(-c2cnn(Cc3ccccc3)c2)nn([C@H]2C[C@@]3(CCN(C(=O)C#CC4CC4)C3)C2)c1N` [Example 41] the value was 0.3 nM.
The same measure, in the same setting: for `C=CC(=O)N1CC[C@]2(C1)C[C@H](n1nc(-c3cnn(Cc4cccc(C(F)(F)F)c4)c3)c(C(N)=O)c1N)C2` [Example 42] the value was 78 nM; for `C=CC(=O)N1CC[C@]2(C1)C[C@H](n1nc(-c3cnn(Cc4cccc(C5CC5)c4)c3)c(C(N)=O)c1N)C2` [Example 43], 3 nM; for `CC#CC(=O)N1CC2(CC(n3nc(-c4cnn(Cc5ccccc5)c4)c(C(N)=O)c3N)C2)C1` [Example 45], 6 nM.
As to `CC#CC(=O)N1CC2(CC(n3nc(-c4cnn(Cc5cc(C)cc(C(F)(F)F)c5)c4)c(C(N)=O)c3N)C2)C1` [Example 46], in assay [1], the IC50 came to 7.9 nM.
The same measure, in the same setting: for `C=CC(=O)N1CC2(CC(n3nc(-c4cnn(Cc5ccccc5)c4)c(C(N)=O)c3N)C2)C1` [Example 48] the value was 16 nM; for `CC#CC(=O)N1CC2(CC(n3nc(-c4cnn(Cc5cc(C(F)(F)F)cc(C(F)(F)F)c5)c4)c(C(N)=O)c3N)C2)C1` [Example 49], 45 nM; for `CC#CC(=O)N1CC[C@]2(C1)C[C@H](n1nc(-c3cnn(Cc4cc(F)ccc4C(F)(F)F)c3)c(C(N)=O)c1N)C2` [Example 57], 0.9 nM.
As to `CC#CC(=O)N1CC[C@]2(C1)C[C@H](n1nc(-c3cnn(Cc4ccc(Cl)c(C(F)(F)F)c4)c3)c(C(N)=O)c1N)C2` [Example 58], the results for the IC50 in assay [2] and in assay [3] were 3.4 nM and over 10000 nM, respectively.
For `CC#CC(=O)N1CC[C@]2(C1)C[C@H](n1nc(-c3cnn(Cc4cccc(F)c4F)c3)c(C(N)=O)c1N)C2` [Example 59], the IC50 in assay [2] is 0.4 nM; in assay [1], 0.3 nM; in assay [5], 68 nM; in assay [6] it was 0.8 nM; in assay [3], over 10000 nM.
